From patent EP3858438A1, “3,4-DIHYDRO-2H-SPIRO[ISOQUINOLINE-1,4'-PIPERIDIN]AMIDE DERIVATIVES HAVING MULTIMODAL ACTIVITY AGAINST PAIN” (ESTEVE PHARMACEUTICALS, S.A., priority 2020, dated 2021) come the findings set out here.

Structures can show the parent of a compound that is named as a salt.

As usually defined, the Ki is a measure of affinity in units of concentration, obtained from inhibition or displacement.

The target in assay [1] is human α2δ-1 subunit of Cav2.2 calcium channel (Homo sapiens, UniProt P54289). Kind of assay: Binding assay to human α2δ-1 subunit of Cav2.2 calcium channel ([3H]-Gabapentin). The conditions noted are these: binding expressed as Ki; [3H]-Gabapentin 15 nM, human α2δ-1 enriched membranes. The protocol:
Binding assay to human α2δ-1 subunit of Cav2.2 calcium channel.
Human α2δ-1 enriched membranes (2.5 µg) were incubated with 15 nM of radiolabeled [3H]-Gabapentin in assay buffer containing Hepes-KOH 10 mM, pH 7.4.
NSB (non specific binding) was measured by adding 10 µM pregabalin. The binding of the test compound was measured at either one concentration (% inhibition at 1 or 10 µM) or five different concentrations to determine affinity values (Ki). After 60 min incubation at 27 °C, binding reaction was terminated by filtering through Multiscreen GF/C (Millipore) presoaked in 0.5 % polyethyleneimine in Vacuum Manifold Station, followed by 3 washes with ice-cold filtration buffer containing 50 mM Tris-HCl, pH 7.4.
Filter plates were dried at 60 °C for 1 h and 30 µl of scintillation cocktail were added to each well before radioactivity reading.
Readings were performed in a Trilux 1450 Microbeta radioactive counter (Perkin Elmer).

The target of the next assay is T1, human µ-opioid receptor (Homo sapiens, UniProt P35372).
T1 construct: expressed in transfected cells; host or cells: CHO-K1
T1 sequence (P35372 whole entry): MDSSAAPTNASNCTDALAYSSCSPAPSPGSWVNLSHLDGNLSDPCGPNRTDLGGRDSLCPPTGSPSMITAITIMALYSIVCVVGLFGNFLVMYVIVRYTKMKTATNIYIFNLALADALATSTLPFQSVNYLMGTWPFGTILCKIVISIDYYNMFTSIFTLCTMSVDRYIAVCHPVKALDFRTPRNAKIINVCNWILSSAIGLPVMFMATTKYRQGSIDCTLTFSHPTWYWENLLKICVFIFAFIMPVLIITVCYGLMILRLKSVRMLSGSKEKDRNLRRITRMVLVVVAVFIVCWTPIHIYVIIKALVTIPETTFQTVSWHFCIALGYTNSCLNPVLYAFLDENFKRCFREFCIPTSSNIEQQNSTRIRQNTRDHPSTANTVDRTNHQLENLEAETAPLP
The experiment in a line: Binding assay to human µ-opioid receptor ([3H]-DAMGO, transfected CHO-K1 cell membranes). Conditions: binding expressed as Ki, [3H]-DAMGO 1 nM. The protocol:
Binding assay to human µ-opioid receptor
Transfected CHO-K1 cell membranes (20 µg) were incubated with [^3H]-DAMGO (1 nM) in assay buffer containing Tris-HCl 50 mM, MgCl2 5 mM at pH 7.4.
NBS (non-specific binding) was measured by adding 10 µM naloxone. The binding of the test compound was measured at either one concentration (% inhibition at 1 or 10 µM) or five different concentrations to determine affinity values (Ki). Plates were incubated at 27 °C for 60 min. After the incubation period, the reaction mixture was then transferred to MultiScreen HTS, FC plates (Millipore), filtered and plates were washed 3 times with ice-cold 10 mM Tris-HCl (pH 7.4).
Filters were dried and counted at approximately 40% efficiency in a MicroBeta scintillation counter (Perkin-Elmer) using EcoScint liquid scintillation cocktail.

human α2δ-1 subunit of Cav2.2 calcium channel, sequence (P54289 25-1103): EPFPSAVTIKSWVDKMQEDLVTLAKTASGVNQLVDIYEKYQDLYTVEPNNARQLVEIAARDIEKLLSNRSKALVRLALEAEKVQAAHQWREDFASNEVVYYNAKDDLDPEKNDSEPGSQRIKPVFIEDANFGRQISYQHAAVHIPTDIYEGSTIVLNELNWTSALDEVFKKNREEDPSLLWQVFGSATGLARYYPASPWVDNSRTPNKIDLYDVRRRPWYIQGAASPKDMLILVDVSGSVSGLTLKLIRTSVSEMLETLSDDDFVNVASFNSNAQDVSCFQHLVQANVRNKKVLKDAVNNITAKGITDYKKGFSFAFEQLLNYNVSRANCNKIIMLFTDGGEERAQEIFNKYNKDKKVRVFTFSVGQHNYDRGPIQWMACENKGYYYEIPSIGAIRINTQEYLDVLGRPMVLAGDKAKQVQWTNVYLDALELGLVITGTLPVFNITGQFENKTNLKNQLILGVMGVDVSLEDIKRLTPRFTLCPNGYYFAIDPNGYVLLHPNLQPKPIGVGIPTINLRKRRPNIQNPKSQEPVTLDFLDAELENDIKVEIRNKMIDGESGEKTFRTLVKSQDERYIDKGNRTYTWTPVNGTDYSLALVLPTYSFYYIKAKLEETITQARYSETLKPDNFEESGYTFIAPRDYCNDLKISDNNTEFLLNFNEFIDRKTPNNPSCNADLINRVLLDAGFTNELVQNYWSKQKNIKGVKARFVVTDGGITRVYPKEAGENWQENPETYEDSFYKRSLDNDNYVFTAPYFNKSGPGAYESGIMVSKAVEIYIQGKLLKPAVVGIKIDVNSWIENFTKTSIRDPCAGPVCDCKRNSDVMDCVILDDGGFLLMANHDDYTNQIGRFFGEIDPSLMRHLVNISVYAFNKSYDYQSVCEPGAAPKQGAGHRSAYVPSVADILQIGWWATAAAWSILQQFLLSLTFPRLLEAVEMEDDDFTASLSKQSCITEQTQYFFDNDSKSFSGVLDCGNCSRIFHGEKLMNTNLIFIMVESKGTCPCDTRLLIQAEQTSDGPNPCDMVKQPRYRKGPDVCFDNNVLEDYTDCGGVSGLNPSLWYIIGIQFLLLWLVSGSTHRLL

`CC[C@@H](c1ccccc1)[C@@H](CN)C(=O)N1CCC2(CC1)c1ccccc1CCN2C` [Example 1]: the Ki was less than 500 nM in assay [1] and less than 100 nM on human µ-opioid receptor.
The matching figures for `CNC[C@@H](C(=O)N1CCC2(CC1)c1ccccc1CCN2C)[C@@H](C)c1ccccc1` [Example 2, (2S,3R)-1-(2-methyl-3,4-dihydro-2H-spiro[isoquinoline-1,4'-piperidin]-1'-yl)-2-((methylamino)methyl)-3-phenylbutan-1-one]: less than 500 nM and 100 to 500 nM.
In the case of `CC[C@@H](c1cccc(Cl)c1)[C@@H](CNC)C(=O)N1CCC2(CC1)c1ccccc1CCN2C` [Example 3, (2S,3R)-3-(3-chlorophenyl)-1-(2-methyl-3,4-dihydro-2H-spiro[isoquinoline-1,4'-piperidin]-1'-yl)-2-((methylamino)methyl)pentan-1-one dihydrochloride], the Ki is less than 500 nM in assay [1] and 100 to 500 nM on human µ-opioid receptor.
The matching figures for `CC[C@@H](c1cccc(Cl)c1)[C@@H](CN)C(=O)N1CCC2(CC1)c1ccccc1CCN2C` [Example 4, (2S,3R)-2-(aminomethyl)-3-(3-chlorophenyl)-1-(2-methyl-3,4-dihydro-2H-spiro[isoquinoline-1,4'-piperidin]-1'-yl)pentan-1-one]: less than 500 nM and less than 100 nM.
